Measurements from patent US8383136B2, “Micelle encapsulation of therapeutic agents” (Wisconsin Alumni Research Foundation, priority 2009, dated 2013).
≈ marks a conversion by molar mass, not a printed value. Where “and” joins values, the source holds several entries; their conditions need not be identical. Equal entries are not always repeated. Where two headings read alike, the source gives them in different places.

Columns and labels:
[1] = % drug loading of PEG-b-PLA micelles (wt drug(s)/wt polymer); assay type: physicochemical; conditions: all drugs of the SDM or MDM together, PEG-b-PLA (4.2K:1.9K) micelles
Description: Drug(s) to polymer w/w percent was calculated for SDM and MDM. PEG-b-PLA micelles were freeze dried, weighed and the amount of drug(s) in the freeze dried sample was quantified by HPLC. The drug w/w percent was calculated as the mass of the drug(s) to the mass of polymer in the freeze dried sample multiplied by 100.

[2] = Dynamic light scattering size of SDM and MDM; assay type: physicochemical; conditions: DLS, drug-loaded SDM or MDM
Description: The drug-loaded micellar solutions were diluted 20 times with DD H2O and the samples was equilibrated for 2 min at 25° C. before the measurements. […] The hydrodynamic diameter of PEG-b-PLA micelles was calculated based on the Stokes-Einstein equation. Correlation function was curve fitted by cumulant method to calculate mean size and polydispersion index (PDI). All measurements were repeated three times, and volume-weighted particle sizes were presented as the average diameter with standard deviation.

[3] = Physical stability / drug loss from PEG-b-PLA micelles after 24 hours (turbidity, HPLC); assay type: physicochemical; conditions: for initial drug level in water / drug level @ 24 hr in water / % w/w drug(s) left @ 24 hr: PEG-b-PLA micelles; for drug precipitated at 24 hours: SDM, HPLC data; for time the micelles were physically stable: turbidity, ambient temperature
Description: Turbidity measurements were used to evaluate the physical stability of drug-loaded PEG-b-PLA micelles. A CARY 50 BIO UV-Visible spectrophotometer equipped with dip probe was used to measure turbidity. Micellar solutions were diluted six times, for a final concentration of PEG-b-PLA of 5 mg/mL, with DD H2O and filtered through 0.45 μm filter. […] Each measurement was performed in triplicate.

[4] = In vitro drug release from PEG-b-PLA micelles (dialysis method); assay type: physicochemical; conditions: 12.5 mM PBS, pH=7.4, 37° C.
Description: (§1) SDMs or MDMs were prepared and characterized as described above. Post micelle preparation each sample was diluted with DD H2O, to yield about 0.10 mg/mL of each drug. A volume of 2.5 mL of the prepared sample was loaded into a 3 mL Slide-A-Lyzer® (Thermo Scientific Inc.) dialysis cassette with a MWCO of 20,000 g/mol. Four cassettes were used in each experiment. The cassettes were placed in 2.0 L of buffer which was changed every 3 hours to ensure sink conditions for drug(s) and polymer. A sample of 100 μL was drawn from each cassette at various sampling time intervals and then replaced with 100 μL of fresh buffer. […] The amount of drug(s) in each sample was quantified by HPLC as described above.
Statistical analysis was performed using one-way ANOVA at 5% significance level combined with Tukey's Multiple Comparison Test or t-test at 5% significance level. Curve-fitting analysis using one phase exponential association was used to calculate the half-life (t1/2) of drug in in vitro drug release experiments. Both analyses were performed using GraphPad Prism version 5.00 for Windows, Graph-Pad Software, San Diego Calif. USA, www.graphpad.com.
as §1, with “Post-micelle preparation,” for “Post micelle preparation”, “yield samples of” for “yield”, “reverse phase HPLC.” for “HPLC as described above.”

[5] = tested on: A549 human non-small cell lung cancer cells; assay: In vitro cytotoxicity, resazurin assay, and combination index; assay type: cell-based; conditions: drug(s) in SDM or MDM, 72 hours, unit inferred
Description: (§2) MCF-7 human breast cancer cells were cultured in DMEM medium while 4T1 murine breast cancer cells, A549 human non-small cell lung cancer cells, and LS180 human colon cancer cells were cultured in RPMI1640 medium. Both media were supplemented with 10% fetal bovine serum (FBS) with antibiotics under 5% CO2 and 37° C. in an incubator. […] Free drugs were dissolved in DMSO, and drug-loaded PEG-b-PLA micelles were in deionized water. The samples were diluted with cell culture media to make 0.10, 1.0, 10, 100 and 1000 nM in 96 well plates. […] The metabolic conversion of resazurin dye by each viable cancer cell was quantified using a fluorescence cell plate reader (SpectraMax M2, Molecular Devices, USA) to estimate cell viability. […] IC50 values of free drugs and drug-loaded PEG-b-PLA micelles were calculated based on median-effect equation using Compusyn software (ver. 1.0).
(§3) CI values were obtained at IC50 values for 2- or 3-drug combinations. CI<1, C=1, and CI>1 were used as criteria to determine whether 2- or 3-drug combinations are synergistic, additive, and antagonistic, respectively (FIGS. 13-20).

[6] = tested on: MCF-7 human breast cancer cells; assay: as above; assay type: cell-based; conditions: MCF-7, drug(s) in SDM or MDM (PEG-b-PLA micelles), 72 hours, nM printed in b258 only, PTX/17-AAG 3.2:1, RAP/17-AAG 1:1, RAP/PTX 1:1, RAP/PTX/17-AAG 1:5:1
Description: as §2, §3

[7] = tested on: 4T1 murine breast cancer cells; assay: as above; assay type: cell-based; conditions: drug(s) in SDM or MDM, 72 hours, unit inferred
Description: as §2, with “The samples were diluted with cell culture media to make 0.10, 1.0, 10, 100 and 1000 nM in 96 well plates.” left out
as §3

[8] = physchem; assay type: physicochemical
Description: The mixture is mixed and sonicated for five minutes. The solvent is then removed by rotoevaporation at approximately 60° C. to provide a film. Hot (˜60° C.) deionized water is added to the oil and the solution is allowed to cool to ˜23° C. The solution is then centrifuged to remove the sediment in a 1.5 mL microtube, at ˜13,200 rpm for 1 minute. The supernatant is collected and filtered through a 0.2 μm PTFE filter.
The resulting solution was dialyzed against H2O in 3500 MWCO tubing (SpectraPor). Resulting micelles were centrifuged at 5000g's for 10 minutes to precipitate unincorporated drug. […] Micelle solutions were concentrated by rotary evaporation under reduced pressure at room temperature, followed by centrifugation (5000g's for 10 minutes).

[9] = assay type: in vivo, rats; conditions: micelle formulation compared to the standard vehicle that employs CrEL
[10] = dogs; cited from earlier work
[11] = Drug solubilization by PEG-b-PLA micelles (drug level in water, reverse phase HPLC); conditions: SDM or MDM, PEG-b-PLA (4.2K:1.9K) micelles
Description: The drug-polymer mixture was dissolved in 0.50 mL acetonitrile (ACN). The ACN was removed at 60° C. under reduced pressure on a rotary evaporator resulting in the formation of a homogenous film, The drug-polymer film was rehydrated with 0.50 mL of DD H2O at 60° C. with gentle agitation resulting in a clear solution of drug-loaded PEG-b-PLA micelles. The micellar solution was filtered using a 0.45 μm filter, and the micelles were characterized in terms of size and loading by Dynamic Light Scattering (DLS) and HPLC respectively.
MDMS were prepared similarly to the SDMs by mixing 2.0 mg of each drug with 15 mg of the polymer. The procedure for the preparation and characterization of these micelles was identical to the SDMs.
The content of drug loaded in PEG-b-PLA micelles was quantified by reverse phase HPLC. The HPLC system used for quantifying was a Shimadzu prominence HPLC system (Shimadzu, JP), consisting of a LC-20AT pump, SIL-20AC HT autosampler, CTO-20AC column oven and a SPD-M20A diode array detector. A sample of 10 μL was injected into a Zorbax SB-C8 Rapid Resolution cartridge (4.6×75 mm, 3.5 micron, Agilent). The column temperature was maintained at 40° C. throughout the run. Two HPLC methods were developed to quantify the amount of the drug(s) loaded in PEG-b-PLA micelles.
The mobile phase was an isocratic mixture of 45% ACN and 54% aqueous phase containing 0.1% phosphoric acid and 1% methanol in DD H2O.
The mobile phase was a gradient mixture of ACN and aqueous phase containing 0.1% phosphoric acid and 1% methanol in DD H2O. […] With both HPLC methods samples were injected twice and reproducible and rapid separation of the drugs was achieved.
Mn of PEG and PLA of PEG-b-PLA was 4,200 and 1,900 g/mol, respectively (APC Inc., UK). ACN was removed by heating at 60° C. and reduced pressure. The resultant dry polymer film containing anti-cancer agent(s) was dissolved by addition of water (0.50 mL) at 60° C. with gentle agitation.
The resultant dry PEG-b-PLA film containing drugs was dissolved by the addition of water (0.50 mL) at 60° C. with gentle agitation.

[12] = drug without micelles; cited from earlier work
[13] = tested on: pediatric acute lymphoblastic leukemia cell lines; conditions: combination of 17-AAG and ETO, four cell lines; cited from earlier work
[14] = Solubilization with Poloxamer F68 (reference example); assay type: physicochemical; conditions: analyte rapamycin
Text: Several polymers that form micelles with drugs were surveyed for solubilizing a paclitaxel-rapamycin-17-AAG drug combination. […] For example, the PEG-PPG-PEG triblock polymer Poloxamer F68 is useful to solubilize many hydrophobic compounds such as resveratrol, a hydrophobic compound with reported anticancer activity. […] In these attempts, the micelles coagulated and deteriorated in aqueous solutions.
Results for forming micelles of the paclitaxel-rapamcyin-17-AAG combination with Poloxamer F68: […]

[15] = PTX/17-AAG 4.7:1, RAP/17-AAG 1:1, RAP/PTX 1:1, RAP/PTX/17-AAG 1:5:1
[16] = PTX/17-AAG 4.7:1, RAP/17-AAG 1:1, RAP/PTX 1:1, RAP/PTX/17-AAG 1:5:1, read-out: IC50

C=CCNC1=C2C[C@@H](C)C[C@H](OC)[C@H](O)[C@@H](C)/C=C(\C)[C@H](OC(N)=O)[C@@H](OC)/C=C\C=C(/C)C(=O)NC(=CC1=O)C2=O [17-AAG, 17-allylamino-17-demethoxygeldanamycin]
% drug loading (wt. drug(s)/wt. polymer) [1]: 13.0 ± 0.9% and 11.3 ± 0.3%
PEG-b-PLA micelle diameter [2]: 39.3 ± 2.9 nm
initial drug level in water ([3]; analyte 17-AAG): 3.90 ± 0.28 mg/mL
drug level @ 24 hr in water ([3]; analyte 17-AAG): 3840 ± 180 µg/mL
first-order rate constant ([4]; release of 17-AAG): 0.525 h⁻¹
IC50 [5, 15]: 771 ± 163 nM
IC50 [6]: 266 ± 48 nM
IC50 [7, 15]: 118 ± 10 nM
17-AAG solubilized ([8]; PEG-PLA (12:6 kDa) micelles): 1.5 mg/mL
solubility ([8]; PEG-PLA (12:6 kDa) micelles in water, aqueous with cosolvent or surfactant or cyclodextrin): ~1500 µg/mL (≈ 2560 µM)
Renal clearance (CLrenal) [9]: increased
hepatic clearance (CLhepatic) [9]: decreased
maximum tolerated dose [10]: 100-200 mg/m^2/day
drug level in water ([11]; analyte 17-AAG): 3900 ± 280 µg/mL

CO[C@H]1/C=C\C=C(/C)C(=O)NC2=CC(=O)C(NCCN(C)C)=C(C[C@@H](C)C[C@H](OC)[C@H](O)[C@@H](C)/C=C(\C)[C@@H]1OC(N)=O)C2=O [17-DMAG, 17-dimethylamino-ethylamino-17-demethoxygeldanamycin]
maximum tolerated dose [10]: 8 mg/m^2/day

CC(=O)O[C@@]12CO[C@@H]1C[C@H](O)[C@@]1(C)C(=O)[C@H](O)C3=C(C)[C@@H](OC(=O)[C@H](O)[C@@H](NC(=O)OC(C)(C)C)c4ccccc4)C[C@@](O)([C@@H](OC(=O)c4ccccc4)[C@H]21)C3(C)C [Docetaxel]
% drug loading (wt. drug(s)/wt. polymer) [1]: 14.2 ± 1.5% and 11.5 ± 0.5%
% drug loading (wt. drug(s)/wt. polymer) ([1]; listed as DCTX): 11.5%
PEG-b-PLA micelle diameter [2]: 37.3 ± 1.7 nm
drug precipitated at 24 hours [3]: ~73%
% w/w drug(s) left @ 24 hr ([3]; analyte docetaxel): 26.8 ± 3.3 % w/w
initial drug level in water ([3]; analyte docetaxel): 4.27 ± 0.44 mg/mL
drug level @ 24 hr in water ([3]; analyte docetaxel): 1140 ± 30 µg/mL
time the micelles were physically stable [3]: approximately 6 hours
first-order rate constant ([4]; release of docetaxel): 0.379 h⁻¹
intrinsic solubility in water [12]: 5.5 µg/mL
drug level in water ([11]; analyte docetaxel): 4270 ± 440 µg/mL
drug level in water ([11]; analyte docetaxel, listed as DCTX): 4270 µg/mL

COc1cc([C@@H]2c3cc4c(cc3[C@@H](O[C@@H]3O[C@@H]5CO[C@@H](C)O[C@H]5[C@H](O)[C@H]3O)[C@H]3COC(=O)[C@H]23)OCO4)cc(OC)c1O [Etoposide]
% drug loading (wt. drug(s)/wt. polymer) [1]: 11.0 ± 0.5%
% drug loading (wt. drug(s)/wt. polymer) ([1]; listed as ETO): 9.6%
PEG-b-PLA micelle diameter [2]: 32.6 ± 1.0 nm
drug precipitated at 24 hours [3]: ~68%
% w/w drug(s) left @ 24 hr ([3]; analyte etoposide): 32.3 ± 3.4 % w/w
initial drug level in water ([3]; analyte etoposide): 3.31 ± 0.15 mg/mL
drug level @ 24 hr in water ([3]; analyte etoposide): 1070 ± 160 µg/mL
time the micelles were physically stable [3]: approximately 6 hours
first-order rate constant ([4]; release of etoposide): 0.636 h⁻¹
intrinsic solubility in water [12]: 58 µg/mL
decrease of the IC50 of ETO [13]: 10 fold
drug level in water ([11]; analyte etoposide): 3310 ± 150 µg/mL

CO[C@H]1C[C@@H]2CC[C@@H](C)[C@@](O)(O2)C(=O)C(=O)N2CCCC[C@H]2C(=O)O[C@H]([C@H](C)C[C@@H]2CC[C@@H](O)[C@H](OC)C2)CC(=O)[C@H](C)/C=C(\C)[C@@H](O)[C@@H](OC)C(=O)[C@H](C)C[C@H](C)/C=C/C=C/C=C/1C [Rapamycin]
% drug loading (wt. drug(s)/wt. polymer) [1]: 6.6 ± 1.3%
PEG-b-PLA micelle diameter [2]: 36.9 ± 1.3 nm
% w/w drug(s) left @ 24 hr ([3]; analyte rapamycin): 91.5 ± 0.2 % w/w
initial drug level in water ([3]; analyte rapamycin): 1.84 ± 0.26 mg/mL
drug level @ 24 hr in water ([3]; analyte rapamycin): 1680 ± 230 µg/mL
first-order rate constant ([4]; release of rapamycin): 0.100 h⁻¹ and 0.081 h⁻¹
IC50 [5, 16]: 590 ± 110 nM
IC50 ([6]; read-out: IC50): 255 ± 37 nM
IC50 [7, 16]: > 100000 nM
loading into micelles [14]: 4%
drug level in water ([11]; analyte rapamycin): 1840 ± 260 µg/mL
